Test results published in the CheMixHub viscosity set.
Where “and” joins values, the source holds several entries; their conditions need not be identical. Identical values can stand only once. ± gives the uncertainty stated by the source.

Test: xn = mol fraction of the nth substance listed

O=S(=O)([O-])[O-].[Ca+2] + O
100 kPa
Conditions	viscosity [mPa·s]
303.15 K, x1 = 0.000281	0.7976 ± 0.16
323.15 K, x1 = 0.000279	0.557 ± 0.11

COc1ccccc1 + CC(C)(C)O
viscosity [mPa·s], 100.33 kPa
Conditions	x1 = 0.1	x1 = 0.1999	x1 = 0.3002	x1 = 0.4001	x1 = 0.5	x1 = 0.6001	x1 = 0.6998	x1 = 0.8001	x1 = 0.9001
303.15 K	2.101 ± 0.019	1.758 ± 0.015	1.484 ± 0.013	1.272 ± 0.011	1.143 ± 0.01	1.011 ± 0.009	0.954 ± 0.008	0.928 ± 0.008	0.919 ± 0.008
313.15 K	1.585 ± 0.014	1.29 ± 0.012	1.099 ± 0.01	1.002 ± 0.009	0.915 ± 0.008	0.853 ± 0.008	0.825 ± 0.007	0.808 ± 0.007	0.798 ± 0.007
323.15 K	1.222 ± 0.011	1.022 ± 0.009	0.887 ± 0.008	0.815 ± 0.008	0.773 ± 0.007	0.743 ± 0.007	0.722 ± 0.007	0.711 ± 0.006	0.701 ± 0.006

C1CCOC1 + CO
Conditions	viscosity
298 K, 101 kPa, x1 = 0.0397	0.527 ± 0.0055 mPa·s
298 K, 101 kPa, x1 = 0.0463	0.5241 ± 0.0055 mPa·s
298 K, 101 kPa, x1 = 0.0629	0.5179 ± 0.0054 mPa·s
298 K, 101 kPa, x1 = 0.0984	0.5053 ± 0.0053 mPa·s
298 K, 101 kPa, x1 = 0.1593	0.49 ± 0.0052 mPa·s
298 K, 101 kPa, x1 = 0.2295	0.4758 ± 0.005 mPa·s
298 K, 101 kPa, x1 = 0.3081	0.463 ± 0.0049 mPa·s
298 K, 101 kPa, x1 = 0.3952	0.4525 ± 0.0048 mPa·s
298 K, 101 kPa, x1 = 0.5068	0.4445 ± 0.0047 mPa·s
298 K, 101 kPa, x1 = 0.6498	0.4398 ± 0.0047 mPa·s
298 K, 101 kPa, x1 = 0.8052	0.4449 ± 0.0048 mPa·s
298.15 K, 101 kPa, x1 = 0.3	0.4761 ± 0.013 mPa·s
298.15 K, 101 kPa, x1 = 0.3076	0.5025 ± 0.0061 mPa·s and 0.5015 ± 0.0061 mPa·s and 0.515 ± 0.0063 mPa·s
303 K, 101.3 kPa, x1 = 0.0471	0.474 ± 0.029 mPa·s
303 K, 101.3 kPa, x1 = 0.1	0.452 ± 0.027 mPa·s
303 K, 101.3 kPa, x1 = 0.1599	0.435 ± 0.026 mPa·s
303 K, 101.3 kPa, x1 = 0.2285	0.406 ± 0.025 mPa·s
303 K, 101.3 kPa, x1 = 0.3075	0.38 ± 0.023 mPa·s
303 K, 101.3 kPa, x1 = 0.3998	0.373 ± 0.023 mPa·s
303 K, 101.3 kPa, x1 = 0.509	0.356 ± 0.022 mPa·s
303 K, 101.3 kPa, x1 = 0.6399	0.356 ± 0.022 mPa·s
303 K, 101.3 kPa, x1 = 0.7995	0.384 ± 0.023 mPa·s
313 K, 101.3 kPa, x1 = 0.0471	0.395 ± 0.024 mPa·s
313 K, 101.3 kPa, x1 = 0.1	0.36 ± 0.022 mPa·s
313 K, 101.3 kPa, x1 = 0.1599	0.35 ± 0.021 mPa·s
313 K, 101.3 kPa, x1 = 0.2285	0.333 ± 0.02 mPa·s
313 K, 101.3 kPa, x1 = 0.3075	0.31 ± 0.019 mPa·s
313 K, 101.3 kPa, x1 = 0.3998	0.294 ± 0.018 mPa·s
313 K, 101.3 kPa, x1 = 0.509	0.3 ± 0.018 mPa·s
313 K, 101.3 kPa, x1 = 0.6399	0.294 ± 0.018 mPa·s
313 K, 101.3 kPa, x1 = 0.7995	0.332 ± 0.02 mPa·s

CCCC[P+](CCCC)(CCCC)CCCC.CS(=O)(=O)[O-] + O=S1(=O)CCCC1
Conditions	viscosity [mPa·s]
313.15 K, 101.33 kPa, x1 = 0.5	84.22 ± 17

O=C(O)CBr + [Br-].[Br-].[Br-].[Br-].[Sn+4]
viscosity [mPa·s], 101 kPa
Conditions	x2 = 0.0895	x2 = 0.2636	x2 = 0.4794	x2 = 0.7268	x2 = 0.9042
313.15 K	3.74 ± 0.13	3.07 ± 0.11	2.48 ± 0.09	2.04 ± 0.07	1.88 ± 0.07
323.15 K	3.12 ± 0.11	2.58 ± 0.09	2.15 ± 0.08	1.78 ± 0.07	1.65 ± 0.06

C1CCOC1 + CC(C)CC(C)(C)C
viscosity [mPa·s], 101 kPa
Conditions	x1 = 0.1001	x1 = 0.2	x1 = 0.3	x1 = 0.4	x1 = 0.5	x1 = 0.6	x1 = 0.7	x1 = 0.8	x1 = 0.9
298.15 K	0.479 ± 0.013	0.477 ± 0.013	0.475 ± 0.013	0.474 ± 0.013	0.473 ± 0.013	0.472 ± 0.013	0.472 ± 0.013	0.471 ± 0.013	0.471 ± 0.013
308.15 K	0.433 ± 0.012	0.432 ± 0.012	0.432 ± 0.012	0.431 ± 0.012	0.431 ± 0.012	0.432 ± 0.012	0.432 ± 0.012	0.432 ± 0.012	0.432 ± 0.012

CCCCCCCCC(=O)O + CCCCCCCCCCCC(=O)[O-].[Na+]
100 kPa, x2 = 0.2
Conditions	viscosity [mPa·s]
293.15 K	68.61 ± 1.2
298.15 K	54.38 ± 0.96
303.15 K	43.69 ± 0.78
308.15 K	35.55 ± 0.62
313.15 K	29.28 ± 0.51
318.15 K	24.38 ± 0.42
323.15 K	20.51 ± 0.35

CC(=O)C1CCOC1=O (stereo not drawn) + CC(=O)C1CC1
101.3 kPa
Conditions	viscosity [mPa·s]
303.15 K, x2 = 0.0998	3.195 ± 0.068
313.15 K, x2 = 0.3004	1.945 ± 0.042
